Test results as given in the supplement of paper PMC12282887.

Experiments:
Test in all cases: fitness (OD AUC treated / untreated) (fraction); higher = more growth
[1] = system: E. coli BW25113 Drob + rob
Description: (§1)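 MIC curves of ciprofloxacin or amoxicillin, with or without 55.5 µg/ml caffeine, against E. coli BW25113 wild type, deletion mutants (ΔmicF, ΔompF, Δrob) and complemented strains. Assays ran in LB at 37°C in 96/384-well plates. Fitness is the OD600 AUC over 8 h divided by the no-drug control; 3-4 biological replicates.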

E. coli BW25113 Drob = system: E. coli BW25113 Drob
Description: as §1

E. coli BW25113 WT = system: E. coli BW25113 WT
Description: as §1

E. coli BW25113 DmicF = system: E. coli BW25113 DmicF
Description: as §1

[2] = system: E. coli BW25113 DompF + ompF
Description: as §1

[3] = system: E. coli BW25113 DmicF + micF
Description: as §1

CC1(C)S[C@@H]2[C@H](NC(=O)[C@H](N)c3ccc(O)cc3)C(=O)N2[C@H]1C(=O)O [Amoxicillin]
fitness
Settings | E. coli BW25113 Drob | E. coli BW25113 WT | [1]
antibiotic concentration 0.72727 µg/ml, caffeine concentration 0 µg/ml | 1.06 | 1.02 | 1.04
antibiotic concentration 0.72727 µg/ml, caffeine concentration 55.4857 µg/ml | 0.954 | 0.986 | 0.988
antibiotic concentration 1.45455 µg/ml, caffeine concentration 0 µg/ml | 1.067 | 1.03 | 1.098
antibiotic concentration 1.45455 µg/ml, caffeine concentration 55.4857 µg/ml | 0.96 | 0.995 | 1.013
antibiotic concentration 2.18182 µg/ml, caffeine concentration 0 µg/ml | 0.956 | 1.01 | 1.06
antibiotic concentration 2.18182 µg/ml, caffeine concentration 55.4857 µg/ml | 0.8209 | 1.02 | 1
antibiotic concentration 2.90909 µg/ml, caffeine concentration 0 µg/ml | 0.233 | 0.791 | 0.381
antibiotic concentration 2.90909 µg/ml, caffeine concentration 55.4857 µg/ml | 0.207 | 1.07 | 0.976
antibiotic concentration 3.63636 µg/ml, caffeine concentration 0 µg/ml | 0.107 | 0.246 | 0.156
antibiotic concentration 3.63636 µg/ml, caffeine concentration 55.4857 µg/ml | 0.0967 | 0.971 | 0.653
antibiotic concentration 4.36364 µg/ml, caffeine concentration 0 µg/ml | 0.0398 | 0.114 | 0.0865
antibiotic concentration 4.36364 µg/ml, caffeine concentration 55.4857 µg/ml | 0.0126 | 0.637 | 0.219
antibiotic concentration 5.09091 µg/ml, caffeine concentration 0 µg/ml | 4.88e-05 | 0.0723 | 0.0167
antibiotic concentration 5.09091 µg/ml, caffeine concentration 55.4857 µg/ml | 0.000488 | 0.251 | 0.113
antibiotic concentration 5.81818 µg/ml, caffeine concentration 0 µg/ml | 0 | 0.0283 | 0
antibiotic concentration 5.81818 µg/ml, caffeine concentration 55.4857 µg/ml | 0 | 0.133 | 0.0601
antibiotic concentration 6.54545 µg/ml, caffeine concentration 0 µg/ml | 0 | 0 | 0
antibiotic concentration 6.54545 µg/ml, caffeine concentration 55.4857 µg/ml | 0 | 0.0838 | 0.00196
antibiotic concentration 7.27273 µg/ml, caffeine concentration 0 µg/ml | 0 | 0 | 0
antibiotic concentration 7.27273 µg/ml, caffeine concentration 55.4857 µg/ml | 0.000488 | 0.0273 | 0
antibiotic concentration 8 µg/ml, caffeine concentration 0 µg/ml | 0 | 0 | 0
antibiotic concentration 8 µg/ml, caffeine concentration 55.4857 µg/ml | 0 | 0.00395 | 0.000108

O=C(O)c1cn(C2CC2)c2cc(N3CCNCC3)c(F)cc2c1=O [Ciprofloxacin]
fitness
Settings | E. coli BW25113 DmicF | E. coli BW25113 Drob | E. coli BW25113 WT | [2] | [3]
antibiotic concentration 0.00227 µg/ml, caffeine concentration 0 µg/ml | 0.916 | 1.07 | 1.07 | – | 1.05
antibiotic concentration 0.00227 µg/ml, caffeine concentration 55.4857 µg/ml | 0.927 | 0.883 | 0.995 | – | –
antibiotic concentration 0.00455 µg/ml, caffeine concentration 0 µg/ml | 0.793 | 0.845 | 0.987 | – | 1.01
antibiotic concentration 0.00455 µg/ml, caffeine concentration 55.4857 µg/ml | 0.867 | 0.887 | 0.986 | – | –
antibiotic concentration 0.00682 µg/ml, caffeine concentration 0 µg/ml | 0.625 | 0.754 | 0.99 | – | 0.985
antibiotic concentration 0.00682 µg/ml, caffeine concentration 55.4857 µg/ml | 0.684 | 0.733 | 1 | – | 0.99
antibiotic concentration 0.00909 µg/ml, caffeine concentration 0 µg/ml | 0.435 | 0.641 | 0.891 | – | 0.876
antibiotic concentration 0.00909 µg/ml, caffeine concentration 55.4857 µg/ml | – | 0.619 | 0.953 | – | 0.941
antibiotic concentration 0.01136 µg/ml, caffeine concentration 0 µg/ml | 0.232 | 0.42 | 0.766 | – | 0.679
antibiotic concentration 0.01136 µg/ml, caffeine concentration 55.4857 µg/ml | – | 0.383 | 0.938 | – | 0.798
antibiotic concentration 0.01364 µg/ml, caffeine concentration 0 µg/ml | 0.153 | 0.266 | 0.58 | 0.748 | 0.381
antibiotic concentration 0.01364 µg/ml, caffeine concentration 55.4857 µg/ml | – | 0.199 | 0.82 | 0.89 | 0.571
antibiotic concentration 0.01591 µg/ml, caffeine concentration 0 µg/ml | 0.0556 | 0.143 | 0.448 | – | 0.154
antibiotic concentration 0.01591 µg/ml, caffeine concentration 55.4857 µg/ml | – | 0.114 | 0.728 | – | 0.329
antibiotic concentration 0.01818 µg/ml, caffeine concentration 0 µg/ml | 0.017 | 0.0644 | 0.304 | – | 0.0704
antibiotic concentration 0.01818 µg/ml, caffeine concentration 55.4857 µg/ml | – | 0.0408 | 0.607 | – | 0.207
antibiotic concentration 0.02045 µg/ml, caffeine concentration 0 µg/ml | 0.0088 | 0.0847 | 0.192 | 0.541 | 0.0466
antibiotic concentration 0.02045 µg/ml, caffeine concentration 55.4857 µg/ml | – | 0.0665 | 0.482 | 0.771 | 0.119
antibiotic concentration 0.02273 µg/ml, caffeine concentration 0 µg/ml | 0.00491 | 0.0851 | 0.101 | – | 0.045
antibiotic concentration 0.02273 µg/ml, caffeine concentration 55.4857 µg/ml | 0.00595 | 0.0576 | 0.374 | – | 0.0506
antibiotic concentration 0.025 µg/ml, caffeine concentration 0 µg/ml | 0 | 0.0782 | 0.0921 | – | 0.0379
antibiotic concentration 0.025 µg/ml, caffeine concentration 55.4857 µg/ml | 0 | 0.0414 | 0.276 | – | 0.0446
antibiotic concentration 0.02727 µg/ml, caffeine concentration 0 µg/ml | – | – | – | 0.238 | –
antibiotic concentration 0.02727 µg/ml, caffeine concentration 55.4857 µg/ml | – | – | – | 0.558 | –
antibiotic concentration 0.03409 µg/ml, caffeine concentration 0 µg/ml | – | – | – | 0.0975 | –
antibiotic concentration 0.03409 µg/ml, caffeine concentration 55.4857 µg/ml | – | – | – | 0.359 | –
antibiotic concentration 0.04091 µg/ml, caffeine concentration 0 µg/ml | – | – | – | 0.039 | –
antibiotic concentration 0.04091 µg/ml, caffeine concentration 55.4857 µg/ml | – | – | – | 0.194 | –
antibiotic concentration 0.04773 µg/ml, caffeine concentration 0 µg/ml | – | – | – | 0.032 | –
antibiotic concentration 0.04773 µg/ml, caffeine concentration 55.4857 µg/ml | – | – | – | 0.102 | –
antibiotic concentration 0.05455 µg/ml, caffeine concentration 0 µg/ml | – | – | – | 0.0267 | –
antibiotic concentration 0.05455 µg/ml, caffeine concentration 55.4857 µg/ml | – | – | – | 0.0511 | –
antibiotic concentration 0.06136 µg/ml, caffeine concentration 0 µg/ml | – | – | – | 0.0262 | –
antibiotic concentration 0.06136 µg/ml, caffeine concentration 55.4857 µg/ml | – | – | – | 0.0404 | –
antibiotic concentration 0.06818 µg/ml, caffeine concentration 0 µg/ml | – | – | – | 0.0324 | –
antibiotic concentration 0.06818 µg/ml, caffeine concentration 55.4857 µg/ml | – | – | – | 0.0403 | –
antibiotic concentration 0.075 µg/ml, caffeine concentration 0 µg/ml | – | – | – | 0.0312 | –
antibiotic concentration 0.075 µg/ml, caffeine concentration 55.4857 µg/ml | – | – | – | 0.0317 | –
